Legend:
[1] = test system: human iPS cells (QHJI01 line and 1231A3 line); assay: MEK inhibitors PD184352, U0126, TAK-733, AZD-8330 in first step (Example 10); format: cell-based; conditions: 6 days; 1 μM PD0325901; 1.5, 3, 6 μM PD184352; 5, 10 μM U0126; 0.3 μM TAK-733; 0.3 μM AZD-8330; day 49 and day 50 of culture
Description: The medium used was “STEMFIT™” AK03N medium (Ajinomoto Co., Inc.) (hereinafter AK03N medium).

[2] = test system: human iPS cells (QHJI01 line); assay: Differentiation induction effect of Nodal or Wnt signal transduction pathway inhibitor alone in second step (Example 12); format: cell-based; conditions: second step day 1 to day 12 with 5 μM SB-431542 and/or 3 μM CKI-7, after first step with 1 μM PD0325901 for 6 days; day 43 of culture
Description: (§1) 2014 Jan. 8; 4: 3594”. The medium used was “STEMFIT™” AK03N medium (Ajinomoto Co., Inc.) (hereinafter AK03N medium).
In the second step, the following 3 kinds of media were used.

[3] = test system: human iPS cells (QHJI01 line); assay: Number of days of exposure of each inhibitor in first step (Example 5); format: cell-based; conditions: day 48 of culture; for brown-black cell population: 4 days-6 days of exposure; for proportion of cells that developed color in the whole well versus number of exposure days: exposure 1 day to 6 days; for brown-black cell populations: exposure for not less than 2 days, PD0325901 1 μM or PD173074 100 nM
Description: as §1

[4] = test system: human iPS cells (1231A3 line); assay: Production of RPE cells including MEK inhibitor or FGF receptor inhibitor treatment step, plate observation (Example 14); format: cell-based; conditions: PD0325901 1 μM or PD173074 100 nM, 6 days; day 43 of culture
Description: as §1

[5] = test system: human iPS cells (QHJI01 line); assay: Seeded cell number in transition of first step to second step (Example 9); format: cell-based; conditions: all seeded cell number (0.2, 0.4, 0.6, 1.0, 2.0, or 4.0×10^4 cells/cm^2) at start of second step; PD0325901 1 μM or PD173074 100 nM, 6 days; day 49 of culture
Description: as §1

[6] = test system: human iPS cells (201B7 line and 1231A3 line); assay: Production of RPE cells from human iPS cells including FGF receptor inhibitor treatment step (Example 2); format: cell-based; conditions: PD173074 100 nM
Description: In one embodiment, to study the effect of the FGF receptor inhibitor in a medium free of a factor for maintaining undifferentiated state (bFGF), StemSure hPSC Medium Δ (Wako Pure Chemical Industries, Ltd.) (hereinafter StemSure hPSC Medium Δ w/o bFGF) not added with bFGF was used.

[7] = test system: human iPS cells (Ff-I01 line and QHJI01 line); assay: Production of RPE cells including MEK inhibitor or FGF receptor inhibitor treatment step using iPS cells Ff-I01, QHJI01 (Example 4); format: cell-based; conditions: PD0325901 1 μM or PD173074 100 nM, 6 days, AK03N medium; day 43 of culture; both Ff-I01 and QHJI01 lines
Description: as §1

[8] = test system: human iPS cells (201B7 line and 1231A3 line); assay: Production of RPE cells including combined treatment step of MEK inhibitor and/or FGF receptor inhibitor and various inhibitors or agonist (Example 3); format: cell-based; conditions: first step 6 days in AK03 medium; observed 38 to 47 days of culture; FIG. 7
Procedure: (§2) The medium used was “STEMFIT™” AK03 medium (Ajinomoto Co., Inc.) (hereinafter AK03 medium).
Production of retinal pigment epithelial (RPE) cells including a combined treatment step of MEK inhibitor and/or FGF receptor inhibitor, and various inhibitors, signal transduction pathway inhibitor or signal transduction pathway agonist was performed as follows. iPS cells under culture for maintaining undifferentiated state were treated with 0.5×TrypLE select, dissociated using a cell scraper, dispersed to single cells by pipetting, seeded in a 6-well culture plate coated with iMatrix-511 (Nippi) (0.5 μg/cm^2) at 1.2×10^4 cells per 1 well and cultured in a ROCK inhibitor [10 μM Y-27632 (Wako Pure Chemical Industries, Ltd.)]-containing AK03 medium under 37° C., 5% CO2 conditions. The next day of cell seeding, PD0325901 (SIGMA) (final concentration 1 μM) as an MEK inhibitor, PD173074 (SIGMA) (final concentration 100 nM) as an FGF receptor inhibitor, LDN193189 (STEMGENT) (final concentration 100 nM) as a BMP receptor inhibitor, SAG (Enzo Life Sciences) (final concentration 30 nM) as an Shh signal transduction pathway agonist, and Go6983 (SIGMA) (final concentration 2 μM) as a PKC inhibitor in the combination shown in FIG. 7 were added to the medium (start of the first step) and the cells were exposed thereto for 6 days (completion of the first step). […]

[9] = test system: human iPS cells (QHJI01 line); assay: Inhibitor concentrations in MEK inhibitor or FGF receptor inhibitor treatment step (Example 8); format: cell-based; conditions: 6 days, day 36 and day 49 of culture
Description: as §1

[10] = test system: human iPS cells (QHJI01 line and 1231A3 line); assay: FGF receptor inhibitor SU5402 in first step (Example 11); format: cell-based; conditions: 6 days; 100 nM PD173074; 5, 10, 20 μM SU5402; day 49 of culture
Description: as §1

RPE65, BEST1, CRALBP = assay: RT-PCR of retinal pigment epithelial cell markers in produced RPE cells (Example 14); format: cell-based, human; conditions: PD0325901 1 μM or PD173074 100 nM, 6 days; cells collected day 43 of culture
Procedure: After observation on day 43 of culture, the cells were collected, RNA was extracted and RT-PCR was performed. RNeasy Micro Kit (QIAGEN) was used for RNA extraction, Oligo (dT)12-18 Primer (Invitrogen) and SuperScript III Reverse Transcriptase (Invitrogen) were used for reverse transcription reaction, and Blend Taq-Plus- (TOYOBO) was used for PCR. The primer sequences of RPE65, BEST1, CRLBP, GAPDH are as described below. […] NO: 1), […] NO: 2), […] NO: 3), […] NO: 4), CRALBP-[…] NO: 5), CRALBP-[…] NO: 6), […] NO: 7), […] NO: 8). The number of cycles of the PCR reaction was 30 cycles for RPE65, BEST1, GAPDH, and 35 cycles for CRALBP. PCR products were detected as a single band by agarose gel electrophoresis at near 369 bp for RPE65, near 261 bp for BEST1, near 341 bp for CRALBP, and near 452 bp for GAPDH. As a positive control, primary human RPE (hRPE) was used and, as a negative control, iPS cells (undifferentiated iPSC) cultured under conditions for maintaining undifferentiated state were used.

[11] = test system: human iPS cells (201B7 line and 1231A3 line); assay: Production of RPE cells from human iPS cells including MEK inhibitor treatment step (Example 1); format: cell-based
Procedure: The medium used was “STEMFIT™” AK03 medium (Ajinomoto Co., Inc.) (hereinafter AK03 medium) or Essential 8 medium (Life Technologies).
Production of retinal pigment epithelial (RPE) cells including an MEK inhibitor treatment step was performed as follows. iPS cells under culture for maintaining undifferentiated state were treated with 0.5×TrypLE select (mixture of equal amounts of TrypLE select (Life Technologies)) and 0.5 mM EDTA/PBS(−)), dissociated using a cell scraper, dispersed to single cells by pipetting, seeded in a 6-well culture plate coated with iMatrix-511 (Nippi) (0.5 μg/cm^2) at 1.2×10^4 cells per 1 well, and cultured in an AK03 medium or Essential 8 medium containing a ROCK inhibitor [10 μM Y-27632 (Wako Pure Chemical Industries, Ltd.)] under 37° C., 5% CO2 conditions. On the next day of seeding, PD0325901 (SIGMA) as an MEK inhibitor was added to the AK03 medium at a final concentration of 1 μM or Essential 8 medium at a final concentration of 0.03 μM (start of the first step) and the cells were exposed thereto for 6 days (completion of the first step). […]

[12] = test system: human iPS cells (1231A3 line); assay: MEK inhibitor exposure period in MEK inhibitor treatment step (Example 6); format: cell-based; conditions: PD0325901 1 μM, day 37 of culture
Procedure: as §2
Production of retinal pigment epithelial (RPE) cells including an MEK inhibitor treatment step was performed as follows. iPS cells under culture for maintaining undifferentiated state were treated with 0.5×TrypLE select (mixture of equal amounts of TrypLE select (Life Technologies) and 0.5 mM EDTA/PBS(−)), dissociated using a cell scraper, dispersed to single cells by pipetting, seeded in a 6-well culture plate coated with iMatrix-511 (Nippi) (0.5 μg/cm^2) at 1.2×10^4 cells per 1 well and cultured in a ROCK inhibitor [10 μM Y-27632 (Wako Pure Chemical Industries, Ltd.)]-containing AK03 medium under 37° C., 5% CO2 conditions. On the next day of seeding, 4 days later or 6 days later, PD0325901 (SIGMA) (final concentration 1 μM) as an MEK inhibitor was added to the AK03 medium (start of the first step) and the cells were exposed thereto for 6 days, 3 days or 1 day (completion of the first step). In addition, cells exposed to MEK inhibitor for 6 days were treated with 0.5×TrypLE select, dissociated using a cell scraper, dispersed to single cells by pipetting, seeded in a 6-well culture plate coated with iMatrix-511 (Nippi) (0.5 μg/cm^2) at 0.8×10^4 cells per 1 well and further cultured for 7 days in AK03 medium containing Y-27632 (final concentration 10 μM) and PD0325901 (final concentration 1 μM) under 37° C., 5% CO2 conditions, whereby the cells were exposed to the MEK inhibitor for 13 days (completion of the first step). Thereafter, the cells were treated with 0.5×TrypLE select, dissociated using a cell scraper, dispersed to single cells by pipetting, seeded in a 6-well culture plate coated with iMatrix-511 (0.5 μg/cm^2) at 1.2×10^6 cells per 1 well and cultured under 37° C., 5% CO2 conditions (start of the second step). […]

## Cc1cc(C(=O)NOCCO)c(Nc2ccc(I)cc2F)n(C)c1=O [AZD-8330, 2-(2-fluoro-4-iodophenylamino)-N-(2-hydroxyethoxy)-1,5-dimethyl-6-oxo-1,6-dihydropyridine-3-carboxamide]
[1]
  emergence of brown-black cell population: emergence of a brown-black cell population could be confirmed over a wide area

## NC(=O)c1ccc(-c2nc(-c3ccc4c(c3)OCO4)c(-c3ccccn3)[nH]2)cc1 [NODALi, 4-[4-(1,3-Benzodioxol-5-yl)-5-(pyridin-2-yl)-1H-imidazol-2-yl]benzamide]
[2]
  emergence of cells showing typical characteristics of RPE cell: emergence of cells showing the same level of typical characteristics of RPE cell such as a brown-black, polygonal, cobblestone-like morphology could be confirmed

## CCN(CC)CCCCNc1ncc2cc(-c3cc(OC)cc(OC)c3)c(NC(=O)NC(C)(C)C)nc2n1 [PD173074, N-[2-[[4-(Diethylamino)butyl]amino]-6-(3,5-dimethoxyphenyl)pyrido[2,3-d]pyrimidin-7-yl]-N′-(1,1-dimethylethyl)urea]
[3]
  brown-black cell population: a remarkable increase in the brown-black cell population was seen
  proportion of cells that developed color in the whole well versus number of exposure days: the proportion of cells that developed color in the whole well increased as the number of exposure day increased up to 6 days of exposure
  brown-black cell populations: brown-black cell populations increased
[4]
  emergence of brown-black cell population: emergence of a brown-black cell population could be confirmed over a wide area
[5]
  emergence of brown-black cell population: emergence of a brown-black cell population could be confirmed over a wide area
[6]; 6 days first step, 201B7, FIG. 5
  cell morphology by microscopic observation: the cells showed typical characteristics of RPE cell such as a brown-black, polygonal, cobblestone-like morphology
[6]; 6 days, AK03 medium, Essential 8 medium or StemSure hPSC Medium Δ w/o bFGF, observed 38 to 42 days, 201B7 line and/or 1231A3 line
  emergence of brown-black cell population on culture plate: emergence of a brown-black cell population could be confirmed over a wide area
[7]
  emergence of brown-black cell population on culture plate: emergence of a brown-black cell population could be confirmed over a wide area
[8]
  emergence of RPE cells showing typical characteristics: emergence of RPE cells showing typical characteristics of RPE cell such as a brown-black, polygonal, cobblestone-like morphology could be confirmed
[9]; all FGF receptor inhibitor concentrations (25-400 nM)
  emergence of brown-black cell population: emergence of a brown-black cell population could be confirmed over a wide area
[10]
  emergence of brown-black cell population: emergence of a brown-black cell population could be confirmed over a wide area
RPE65, BEST1, CRALBP
  bands of retinal pigment epithelial cell markers RPE65, BEST1, CRALBP by RT-PCR: clear bands could be confirmed

## O=C(NOCC1CC1)c1ccc(F)c(F)c1Nc1ccc(I)cc1Cl [PD184352]
[1]
  emergence of brown-black cell population: emergence of a brown-black cell population could be confirmed over a wide area

## O=C(NOC[C@H](O)CO)c1ccc(F)c(F)c1Nc1ccc(I)cc1F [PD0325901, N-[(2R)-2,3-Dihydroxypropoxy]-3,4-difluoro-2-[(2-fluoro-4-iodophenyl)amino]-benzamide]
[3]
  brown-black cell population: a remarkable increase in the brown-black cell population was seen
  proportion of cells that developed color in the whole well versus number of exposure days: the proportion of cells that developed color in the whole well increased as the number of exposure day increased up to 6 days of exposure
  brown-black cell populations: brown-black cell populations increased
[4]
  emergence of brown-black cell population: emergence of a brown-black cell population could be confirmed over a wide area
[1]
  emergence of brown-black cell population: emergence of a brown-black cell population could be confirmed over a wide area
[5]
  emergence of brown-black cell population: emergence of a brown-black cell population could be confirmed over a wide area
[7]
  emergence of brown-black cell population on culture plate: emergence of a brown-black cell population could be confirmed over a wide area
[8]
  emergence of RPE cells showing typical characteristics: emergence of RPE cells showing typical characteristics of RPE cell such as a brown-black, polygonal, cobblestone-like morphology could be confirmed
[11]; PD0325901 1 μM in AK03 medium or 0.03 μM in Essential 8 medium, exposed 6 days, observed 38 to 42 days of culture, both 201B7 and 1231A3 lines
  emergence of brown-black cell population on culture plate: emergence of a brown-black cell population could be confirmed over a wide area
[11]; PD0325901 1 μM, 6 days first step, 201B7, FIG. 2
  cell morphology by microscopic observation: the cells showed typical characteristics of RPE cell such as a brown-black, polygonal, cobblestone-like morphology
[9]; all MEK inhibitor concentrations (0.25-4 μM)
  emergence of brown-black cell population: emergence of a brown-black cell population could be confirmed over a wide area
RPE65, BEST1, CRALBP
  bands of retinal pigment epithelial cell markers RPE65, BEST1, CRALBP by RT-PCR: clear bands could be confirmed
[12]; exposure for 3 days
  emergence of brown-black cell population: emergence of a brown-black cell population could be confirmed over a wide area
[12]; exposure for 6 days
  emergence of brown-black cell population: emergence of a brown-black cell population could be confirmed over a wide area
[12]; exposure for 13 days
  emergence of colored cell population: sufficient emergence of colored cell population was also confirmed
[12]; exposure for one day
  cells showing typical characteristics of RPE cell: almost no cell that showed typical characteristics of RPE cell

## Cc1c[nH]c(C=C2C(=O)Nc3ccccc32)c1CCC(=O)O [SU5402, 2-[(1,2-Dihydro-2-oxo-3H-indol-3-ylidene)methyl]-4-methyl-1H-pyrrole-3-propanoic acid]
[10]
  emergence of brown-black cell population: emergence of a brown-black cell population could be confirmed over a wide area

## Cn1c(=O)c(F)c(Nc2ccc(I)cc2F)c2c(=O)n(C[C@@H](O)CO)cnc21 [TAK-733, (R)-3-(2,3-dihydroxypropyl)-6-fluoro-5-(2-fluoro-4-iodophenylamino)-8-methylpyrido[2,3-d]pyrimidine-4,7(3H, 8H)-dione]
[1]
  emergence of brown-black cell population: emergence of a brown-black cell population could be confirmed over a wide area

## N#CC(=C(N)Sc1ccccc1N)C(C#N)=C(N)Sc1ccccc1N [U0126, 1,4-Diamino-2,3-dicyano-1,4-bis[2-aminophenylthio]butadiene]
[1]
  emergence of brown-black cell population: emergence of a brown-black cell population could be confirmed over a wide area

## NCCNS(=O)(=O)c1ccc(Cl)c2ccncc12 [WNTi, N-(2-Aminoethyl)-5-chloroisoquinoline-8-sulfonamide]
[2]
  emergence of cells showing typical characteristics of RPE cell: the brown-black area in the whole well decreased; however, emergence of a sufficient number of cells showing the typical characteristics of RPE cell could be confirmed

— US12221625B2, “Method for producing retinal pigment epithelial cells” (SUMITOMO PHARMA CO., LTD., priority 2015, dated 2025)
